Source: publication PMC12668308, “A Novel Antimalarial Agent that Inhibits Protein Synthesis in Plasmodium falciparum” (Angewandte Chemie (International Ed. in English), 2025)

How the values were obtained:
[1] = system: cytosolic ribosomal subunits; assay: iSPP assay, P. falciparum lysate; assay type: binding, Plasmodium falciparum; settings: lysate incubated with 100 µM; 104 stabilized proteins in total for 31
Excerpt: To further elucidate the MoA of 31, an integral solvent‐induced protein precipitation (iSPP) assay was employed as recently described.^[ [26] ^] iSPP utilizes a solvent mixture (acetone/ethanol/acetic acid) to induce protein denaturation, allowing the detection of drug‐protein interactions by quantitative mass spectrometry based on changes in protein stability due to compound binding using cellular lysates from in vitro blood‐stage P. falciparum parasites.
P. falciparum NF54 lysates were extracted as described in ^[26^] . The parasite asynchronous culture was extracted once 3-5% parasitemia was reached. Saponin lysis was done as described in 2.2.10. […] The soluble protein fraction (supernatant) was collected and the protein content was quantified using the BCA assay (Pierce™ BCA Protein Assay Kit, Thermo Fisher Scientific). […]
The raw LFQ-DIA intensity values of biological replicates across all conditions were normalized to the median abundance using Excel. […] Dose-dependent curves were generated using normalized protein intensity values, expressed as a ratio to the vehicle control. […]

[2] = system: mRNA translation in NF54 trophozoite-stage parasites; assay: Surface sensing of translation (SUnSET) assay; assay type: cell-based, Plasmodium falciparum; settings: trophozoites 30–35 hpi; 31 at 3x, 50x, 100x IC50; 34 and pyrimethamine at 3x IC50
Method: To confirm the role of 31 as a translation inhibitor, the surface sensing of translation (SUnSET) assay was employed. This involves incubating the culture with a translation inhibitor, puromycin, a structural analogue of aminoacyl tRNA. Puromycin is incorporated in the nascent polypeptide chain and prevents further elongation. When puromcyin is used in sub‐lethal concentrations, incorporation of puromycin in neosynthesized protein correlates with the levels of mRNA translation (Figure 3c, lane2).^[ [27] ^] […] This trend was further confirmed by the quantified western blot signals (Figures 3d and S4C) that are consistent with the iSPP profiling results.
SUnSET: The SUnSET assay was done as described in. ^[27^]Tightly synchronized NF54 wild type parasites were treated with the compounds for 4h at 30-35 hpi (trophozoite stage). The following compounds and amounts used were: cycloheximide (3xIC50, 1,2 µM; Calbiochem), pyrimethamine (3xIC50, 21 nM; MedChemExpress), 34 (3xIC50, 12 µM), and 31 (3xIC50, 12 nM; 50xIC50, 200 nM; 100xIC50, 400 nM). Parasites were incubated with 1 µg mL^-1 (Sigma P8833) for 1 h at 37 °C and saponin lysis was performed.
Saponin lysis and Western blot: Saponin lysis was done on infected RBC at ~5% parasitemia to lyse erythrocytes. Parasite cultures were centrifuged at 1,200 g for 5 min at room temperature. Once the supernatant was discarded, 10 volumes of ice-cold 0.1% (w/v) saponin (Calbiochem 558255, dissolved in PBS, and filtered with 0,22) was added, incubated on ice for 10 min and centrifuged for 2,272 g for 15 min at 4 °C. […] The membrane was washed 3 times in PBS-T (3 min incubation in each washing step) and the signal was detected using the chemiluminescent substrate SuperSignal West Pico Plus (Thermo Scientific, REF 34580) and the imaging system Vilber Fusion FX7 Edge 17.10 SN. Quantification of Western blot signal was done by measuring the integrated density of each lane using ImageJ analysis software (version 1.54p). […]

Row | SMILES | significantly stabilized proteins belonging to cytosolic ribosomal subunits [1] | mRNA translation (puromycin incorporation) [2]
1 | CN1CCN(Cc2ccc(O)c(NC(=O)c3cccc(Oc4cc(C(F)(F)F)ccn4)c3)c2)CC1 [Compound 31, N-(2-hydroxy-5-((4-methylpiperazin-1-yl)methyl)phenyl)-3-((4-(trifluoromethyl)pyridin-2-yl)oxy)benzamide] | 12 | concentration‐dependent reduction in translation
2 | O=C(Nc1cc(CN2CCOCC2)ccc1F)c1cccc(Oc2cc(C(F)(F)F)ccn2)c1 [Compound 34, N-(2-Fluoro-5-(morpholinomethyl)phenyl)-3-((4-(trifluoromethyl)pyridin-2-yl)oxy)benzamide] | failed to stabilize any cytosolic ribosomal proteins | did not reduce mRNA translation
